Reference: patent publication US9932340B2, “Substituted indoles” (AbbVie Inc., priority 2014, dated 2018)

Each compound was assayed against SUV420H1 enzyme (Homo sapiens, UniProt Q4FZB7) (assay: TR-FRET SAH SUV420H1 enzyme inhibition assay). Conditions: Histone Peptide H4(8-30)me1 and SAM, overnight at room temp, TR-FRET detection of SAH, read-out: TR-FRET SAH_SUV420H1 IC50.
Format: biochemical
Procedure, shortened: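 SUV420H1 (90 nM) preincubated 30 min with compound (3-fold dilutions, 50 to 0.00075 μM), then H4(8-30)me1 peptide 5 nM and SAM 4 nM added, overnight at room temp. SAH product detected by TR-FRET with Tb anti-SAH antibody and Oregon Green-SAH in RIPA buffer, 4 h; IC50 from Hill fit, asymptotes fixed 0-100%.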

SUV420H1 enzyme, sequence (Q4FZB7 whole entry): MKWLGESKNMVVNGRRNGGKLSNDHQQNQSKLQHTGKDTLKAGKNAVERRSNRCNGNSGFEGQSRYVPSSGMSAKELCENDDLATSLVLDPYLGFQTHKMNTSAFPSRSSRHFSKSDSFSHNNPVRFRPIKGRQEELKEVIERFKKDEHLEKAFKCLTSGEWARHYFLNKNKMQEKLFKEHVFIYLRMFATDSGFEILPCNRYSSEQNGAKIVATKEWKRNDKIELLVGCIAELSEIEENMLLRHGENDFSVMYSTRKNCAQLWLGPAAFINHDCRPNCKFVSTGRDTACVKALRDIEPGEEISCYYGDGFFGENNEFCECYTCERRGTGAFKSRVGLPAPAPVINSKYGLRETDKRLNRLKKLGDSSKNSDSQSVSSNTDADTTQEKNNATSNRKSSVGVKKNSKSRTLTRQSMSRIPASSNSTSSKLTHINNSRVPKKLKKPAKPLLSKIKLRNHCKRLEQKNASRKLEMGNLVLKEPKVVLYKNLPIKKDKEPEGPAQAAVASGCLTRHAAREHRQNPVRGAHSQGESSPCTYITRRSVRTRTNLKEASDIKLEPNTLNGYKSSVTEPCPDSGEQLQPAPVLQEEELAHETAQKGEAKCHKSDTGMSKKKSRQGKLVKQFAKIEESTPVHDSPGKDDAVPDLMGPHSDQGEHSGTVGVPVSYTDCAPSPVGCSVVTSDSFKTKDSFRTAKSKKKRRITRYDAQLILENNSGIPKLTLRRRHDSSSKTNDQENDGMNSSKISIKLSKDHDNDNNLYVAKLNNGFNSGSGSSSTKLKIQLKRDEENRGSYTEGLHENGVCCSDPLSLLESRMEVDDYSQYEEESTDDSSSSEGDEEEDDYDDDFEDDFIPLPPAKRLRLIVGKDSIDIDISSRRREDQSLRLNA

Which IC50 does the source give for `CC(=O)N1CCC(c2cc(Cn3cnc4c(N)ncnc43)c3[nH]c(CNC(=O)c4ccc(C#N)cc4Cl)cc3c2)CC1` [Example 281, N-({5-(1-acetylpiperidin-4-yl)-7-[(6-amino-9H-purin-9-yl)methyl]-1H-indol-2-yl}methyl)-2-chloro-4-cyanobenzamide] here?
Its IC50 is 141 nM.

How did the IC50 turn out when `CCn1nc(C)c(C(=O)NCc2cc3cc(Cl)cc(Cn4cnc5c(N)ncnc54)c3[nH]2)c1C` [Example 188, N-({7-[(6-amino-9H-purin-9-yl)methyl]-5-chloro-1H-indol-2-yl}methyl)-1-ethyl-3,5-dimethyl-1H-pyrazole-4-carboxamide] was run?
The IC50 was 507 nM.

How did the IC50 turn out when `NCc1cc2cc(-c3ccc(C(=O)NC4CC4)cc3)cc(Cn3cnc4c(N)ncnc43)c2[nH]1` [Example 50, 4-{2-(aminomethyl)-7-[(6-amino-9H-purin-9-yl)methyl]-1H-indol-5-yl}-N-cyclopropylbenzamide] was run?
Its IC50 is 223 nM.

Which IC50 does the source give for `Nc1ncnc2c1ncn2Cc1cc(Cl)cc2cc(CNC(=O)c3ccc4scnc4c3)[nH]c12` [Example 336, N-({7-[(6-amino-9H-purin-9-yl)methyl]-5-chloro-1H-indol-2-yl}methyl)-1,3-benzothiazole-5-carboxamide] here?
Its IC50 is 431 nM.

For `CC(=O)N1CCC=C(c2cc(Cn3cnc4c(N)ncnc43)c3[nH]c(CN)cc3c2)C1` [Example 16, 1-[5-{2-(aminomethyl)-7-[(6-amino-9H-purin-9-yl)methyl]-1H-indol-5-yl}-3,6-dihydropyridin-1(2H)-yl]ethanone], which IC50 is on record?
The IC50 was 440 nM.

How did the IC50 turn out when `NCc1cc2cc(-c3ccc4c(c3)CCO4)cc(Cn3cnc4c(N)ncnc43)c2[nH]1` [Example 57, 9-{[2-(aminomethyl)-5-(2,3-dihydro-1-benzofuran-5-yl)-1H-indol-7-yl]methyl}-9H-purin-6-amine] was run?
Its IC50 is 457 nM.

Which IC50 does the source give for `Cc1cc(C#N)ccc1C(=O)NCc1cc2cc(C3=CCNCC3)cc(Cn3cnc4c(N)ncnc43)c2[nH]1` [Example 305, N-({7-[(6-amino-9H-purin-9-yl)methyl]-5-(1,2,3,6-tetrahydropyridin-4-yl)-1H-indol-2-yl}methyl)-4-cyano-2-methylbenzamide] here?
The IC50 was 36.7 nM.

With `CS(=O)(=O)c1ccc(-c2ccc(Cn3cnc4c(N)ncnc43)c3[nH]c(CN)cc23)cc1` [Example 81, 9-({2-(aminomethyl)-4-[4-(methylsulfonyl)phenyl]-1H-indol-7-yl}methyl)-9H-purin-6-amine] as the compound, how does the IC50 read?
Its IC50 is 334 nM.

How did the IC50 turn out when `CN(C)c1ccc(CC(=O)NCc2cc3cc(Cl)cc(Cn4cnc5c(N)ncnc54)c3[nH]2)cc1` [Example 317, N-({7-[(6-amino-9H-purin-9-yl)methyl]-5-chloro-1H-indol-2-yl}methyl)-2-[4-(dimethylamino)phenyl]acetamide] was run?
The IC50 was 4500 nM.

With `NCc1cc2cc(-c3cccc(C(N)=O)c3)cc(Cn3cnc4c(N)ncnc43)c2[nH]1` [Example 40, 3-{2-(aminomethyl)-7-[(6-amino-9H-purin-9-yl)methyl]-1H-indol-5-yl}benzamide] as the compound, how does the IC50 read?
The IC50 was 425 nM.

`Nc1ncnc2c1ncn2Cc1cc(Cl)cc2cc(CNC(=O)c3cnc4ccoc4c3)[nH]c12` [Example 340, N-({7-[(6-amino-9H-purin-9-yl)methyl]-5-chloro-1H-indol-2-yl}methyl)furo[3,2-b]pyridine-6-carboxamide] was tested. Which IC50 did it give?
Its IC50 is 807 nM.

With `NCc1cc2cc(C3=CCC(F)(F)CC3)cc(Cn3cnc4c(N)ncnc43)c2[nH]1` [Example 14, 9-{[2-(aminomethyl)-5-(4,4-difluorocyclohex-1-en-1-yl)-1H-indol-7-yl]methyl}-9H-purin-6-amine] as the compound, how does the IC50 read?
The IC50 was 186 nM.

How did the IC50 turn out when `CN(C)C(=O)CCc1c[nH]c2c(Cn3cnc4c(N)ncnc43)cccc12` [Example 3, 3-{7-[(6-amino-9H-purin-9-yl)methyl]-1H-indol-3-yl}-N,N-dimethylpropanamide] was run?
Its IC50 is 35000 nM.

How did the IC50 turn out when `Cc1noc(N)c1C(=O)NCc1cc2cc(Cl)cc(Cn3cnc4c(N)ncnc43)c2[nH]1` [Example 155, 5-amino-N-({7-[(6-amino-9H-purin-9-yl)methyl]-5-chloro-1H-indol-2-yl}methyl)-3-methyl-1,2-oxazole-4-carboxamide] was run?
Its IC50 is 3590 nM.

How did the IC50 turn out when `CS(=O)(=O)c1ccc(CNCc2cc3cc(Cl)cc(Cn4cnc5c(N)ncnc54)c3[nH]2)cc1F` [Example 264, 9-{[5-chloro-2-({[3-fluoro-4-(methylsulfonyl)benzyl]amino}methyl)-1H-indol-7-yl]methyl}-9H-purin-6-amine] was run?
The IC50 was 3230 nM.

`Cc1noc(C)c1C(=O)NCc1cc2cc(-c3cccc(C(=O)N4CCOCC4)c3)cc(Cn3cnc4c(N)ncnc43)c2[nH]1` [Example 180, N-({7-[(6-amino-9H-purin-9-yl)methyl]-5-[3-(morpholin-4-ylcarbonyl)phenyl]-1H-indol-2-yl}methyl)-3,5-dimethyl-1,2-oxazole-4-carboxamide] was tested. Which IC50 did it give?
Its IC50 is 130 nM.

`N#CCc1ccc(-c2cc(Cn3cnc4c(N)ncnc43)c3[nH]c(CN)cc3c2)cc1` [Example 45, (4-{2-(aminomethyl)-7-[(6-amino-9H-purin-9-yl)methyl]-1H-indol-5-yl}phenyl)acetonitrile] was tested. Which IC50 did it give?
Its IC50 is 356 nM.

With `Nc1ncnc2c1ncn2Cc1cc(Cl)cc2cc(CNC(=O)CC3CC3)[nH]c12` [Example 110, N-({7-[(6-amino-9H-purin-9-yl)methyl]-5-chloro-1H-indol-2-yl}methyl)-2-cyclopropylacetamide] as the compound, how does the IC50 read?
The IC50 was 10700 nM.

Which IC50 does the source give for `COc1c(C(=O)NCc2cc3cc(Cl)cc(Cn4cnc5c(N)ncnc54)c3[nH]2)cnc2c1c(C)nn2C` [Example 373, N-({7-[(6-amino-9H-purin-9-yl)methyl]-5-chloro-1H-indol-2-yl}methyl)-4-methoxy-1,3-dimethyl-1H-pyrazolo[3,4-b]pyridine-5-carboxamide] here?
The IC50 was 84.4 nM.

For `Nc1ncnc2c1ncn2Cc1cc(Cl)cc2cc(CNC(=O)c3c(F)cccc3Br)[nH]c12` [Example 226, N-({7-[(6-amino-9H-purin-9-yl)methyl]-5-chloro-1H-indol-2-yl}methyl)-2-bromo-6-fluorobenzamide], which IC50 is on record?
The IC50 was 275 nM.

Which IC50 does the source give for `Nc1ncnc2c1ncn2Cc1cc(Cl)cc2cc(CNC(=O)c3cccnc3)[nH]c12` [Example 196, N-({7-[(6-amino-9H-purin-9-yl)methyl]-5-chloro-1H-indol-2-yl}methyl)pyridine-3-carboxamide] here?
Its IC50 is 905 nM.

How did the IC50 turn out when `Nc1ncnc2c1ncn2Cc1cc(Cl)cc2cc(CNC(=O)c3ccccc3C(=O)N3CCCCC3)[nH]c12` [Example 324, N-({7-[(6-amino-9H-purin-9-yl)methyl]-5-chloro-1H-indol-2-yl}methyl)-2-(piperidin-1-ylcarbonyl)benzamide] was run?
The IC50 was 12500 nM.

For `Cn1cc(-c2cc(Cn3cnc4c(N)ncnc43)c3[nH]c(CN)cc3c2)cn1` [Example 18, 9-{[2-(aminomethyl)-5-(1-methyl-1H-pyrazol-4-yl)-1H-indol-7-yl]methyl}-9H-purin-6-amine], which IC50 is on record?
The IC50 was 561 nM.

With `Cn1ccc(C(=O)NCc2cc3cc(Cl)cc(Cn4cnc5c(N)ncnc54)c3[nH]2)n1` [Example 151, N-({7-[(6-amino-9H-purin-9-yl)methyl]-5-chloro-1H-indol-2-yl}methyl)-1-methyl-1H-pyrazole-3-carboxamide] as the compound, how does the IC50 read?
Its IC50 is 6750 nM.

`CC(C)n1nnc2cc(C(=O)NCc3cc4cc(Cl)cc(Cn5cnc6c(N)ncnc65)c4[nH]3)ccc21` [Example 371, N-({7-[(6-amino-9H-purin-9-yl)methyl]-5-chloro-1H-indol-2-yl}methyl)-1-(propan-2-yl)-1H-benzotriazole-5-carboxamide] was tested. Which IC50 did it give?
The IC50 was 21500 nM.

With `N#Cc1ccc(-c2ccc(Cn3cnc4c(N)ncnc43)c3[nH]c(CN)cc23)cc1` [Example 82, 4-{2-(aminomethyl)-7-[(6-amino-9H-purin-9-yl)methyl]-1H-indol-4-yl}benzonitrile] as the compound, how does the IC50 read?
The IC50 was 939 nM.

For `Cn1ncc2ccc(C(=O)NCc3cc4cc(Cl)cc(Cn5cnc6c(N)ncnc65)c4[nH]3)cc21` [Example 360, N-({7-[(6-amino-9H-purin-9-yl)methyl]-5-chloro-1H-indol-2-yl}methyl)-1-methyl-1H-indazole-6-carboxamide], which IC50 is on record?
Its IC50 is 747 nM.

`Nc1ncnc2c1ncn2Cc1cc(Cl)cc2cc(CNC(=O)c3cc4[nH]nnc4cc3F)[nH]c12` [Example 334, N-({7-[(6-amino-9H-purin-9-yl)methyl]-5-chloro-1H-indol-2-yl}methyl)-5-fluoro-1H-benzotriazole-6-carboxamide] was tested. Which IC50 did it give?
Its IC50 is 2040 nM.

Which IC50 does the source give for `CC(C)(C)OC(=O)N1CCC[C@H]1C(=O)NCc1cc2cc(Cl)cc(Cn3cnc4c(N)ncnc43)c2[nH]1` [Example 123, tert-butyl (2S)-2-[({7-[(6-amino-9H-purin-9-yl)methyl]-5-chloro-1H-indol-2-yl}methyl)carbamoyl]pyrrolidine-1-carboxylate] here?
The IC50 was 44900 nM.

With `Nc1ncnc2c1ncn2Cc1cc(Cl)cc2cc(CNC(=O)c3ccccn3)[nH]c12` [Example 195, N-({7-[(6-amino-9H-purin-9-yl)methyl]-5-chloro-1H-indol-2-yl}methyl)pyridine-2-carboxamide] as the compound, how does the IC50 read?
Its IC50 is > 50000 nM.

With `Nc1ncnc2c1ncn2Cc1cc(Cl)cc2cc(CNC(=O)Cc3ccc(F)cc3)[nH]c12` [Example 254, N-({7-[(6-amino-9H-purin-9-yl)methyl]-5-chloro-1H-indol-2-yl}methyl)-2-(4-fluorophenyl)acetamide] as the compound, how does the IC50 read?
Its IC50 is > 50000 nM.

`COc1ccc(-c2ccc(Cn3cnc4c(N)ncnc43)c3[nH]c(CN)cc23)cc1` [Example 78, 9-{[2-(aminomethyl)-4-(4-methoxyphenyl)-1H-indol-7-yl]methyl}-9H-purin-6-amine] was tested. Which IC50 did it give?
The IC50 was 632 nM.

With `Cc1ccccc1C(=O)NCc1cc2cc(Cl)cc(Cn3cnc4c(N)ncnc43)c2[nH]1` [Example 248, N-({7-[(6-amino-9H-purin-9-yl)methyl]-5-chloro-1H-indol-2-yl}methyl)-2-methylbenzamide] as the compound, how does the IC50 read?
Its IC50 is 571 nM.

How did the IC50 turn out when `Nc1ncnc2c1ncn2Cc1cc(Cl)cc2cc(CNC(=O)c3cccc(F)c3)[nH]c12` [Example 224, N-({7-[(6-amino-9H-purin-9-yl)methyl]-5-chloro-1H-indol-2-yl}methyl)-3-fluorobenzamide] was run?
Its IC50 is 2770 nM.
